For six compounds, IC50 results are on record in ChEMBL document CHEMBL3886864, “Heterocyclic resorcinol derivatives, preparation of same and cosmetic uses thereof” (2016).

By IC50 is commonly meant the midpoint of a concentration-inhibition curve.

The assay concerns the target T1, Polyphenol oxidase 1 (Agaricus bisporus, UniProt Q00024).
T1 sequence (Q00024 whole entry): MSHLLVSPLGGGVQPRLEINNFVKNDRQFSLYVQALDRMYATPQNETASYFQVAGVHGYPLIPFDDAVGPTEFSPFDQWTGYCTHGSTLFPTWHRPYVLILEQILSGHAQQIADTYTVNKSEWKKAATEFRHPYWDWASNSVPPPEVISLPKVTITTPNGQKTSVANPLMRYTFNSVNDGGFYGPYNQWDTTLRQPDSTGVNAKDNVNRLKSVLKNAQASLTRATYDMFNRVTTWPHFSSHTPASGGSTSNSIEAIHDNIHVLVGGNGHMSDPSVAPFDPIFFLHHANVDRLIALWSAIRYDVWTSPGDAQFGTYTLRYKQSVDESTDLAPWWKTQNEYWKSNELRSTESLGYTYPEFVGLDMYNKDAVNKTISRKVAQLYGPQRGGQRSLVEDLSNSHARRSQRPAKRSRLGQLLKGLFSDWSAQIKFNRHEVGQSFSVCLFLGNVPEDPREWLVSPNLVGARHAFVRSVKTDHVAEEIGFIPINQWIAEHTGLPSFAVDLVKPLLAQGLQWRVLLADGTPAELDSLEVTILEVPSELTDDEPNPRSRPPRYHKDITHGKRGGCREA
Description: Inhibition Assay: Reader: Synergy HT program: tyrosinase 280-490 kinetics: kinetics over 45 minutes, reading at t=10 minutes, Tests in transparent 96-well plates, Phosphate buffer (pH 6.8), Enzyme: mushroom tyrosinase (T-3824, Sigma), Substrate: L-tyrosine (T-3754, Sigma), Positive control: Kojic acid (KA) (60890, Fluka) (reference inhibitor). Reference Molecules for the Test: Kojic acid: ….
`CC(c1cccnc1)c1ccc(O)cc1O` (stereo unspecified): the 50% inhibitory concentration (IC50) stood at 200 nM. As to `CC(c1cccs1)c1ccc(O)cc1O` (stereo unspecified), the IC50 is 90 nM.

Take `CC(c1ccccn1)c1ccc(O)cc1O` (stereo unspecified): the IC50 is 400 nM. For the compound `CC(c1ccsc1)c1ccc(O)cc1O` (stereo unspecified), the IC50 is 80 nM. As for `CC(c1nccs1)c1ccc(O)cc1O` (stereo unspecified), the figure is 1500 nM; as for `CCCCc1ccc(O)cc1O` [RUCINOL], 1000 nM.
